From US20240025891A1 (Celgene Corporation, priority 2020, published 2024)

Tested on: Dirofilaria immitis microfilariae and 4th stage larvae (L4)
Test: Heartworm screen Dirofilaria immitis (DiMF and DiL4 assays)
Assay type: cell-based
Settings: read-out: D. immitis Act class
Experimental: Heartworm Screen Dirofilaria immitis (D. immitis)
(§1) Dirofilaria immitis, Microfilaria (DiMF) Assay. Compounds were dissolved and serially diluted in DMSO. Aliquots were spotted to the empty wells of assay plates. Media and microfilariae of Dirofilaria immitis were added to each well to dilute the test compounds to the desired concentrations. Assay plates were incubated for approximately 72 hours, and the larvae in each well were observed microscopically for drug effect. Microfilariae in each well were assessed subjectively for survival or paralysis, and results were reported as Minimum Effective Dose (MED).
as §1, with “L4 stage (DiL4)” for “Microfilaria (DiMF)”, “4th stage larvae (L4)” for “microfilariae”, “Larvae” for “Microfilariae”
Active and selective (DiL4 vs. DiMF potency) example compounds were subsequently evaluated in heartworm positive dog studies to correlate the in vitro selectivity profile with in vivo effects on circulating microfilariae.

Row | Structure (SMILES) | IC50 [nM]
1 | CCOc1ccc(-c2csc(Nc3ccc(C(F)(F)F)cn3)n2)nc1 [Example 95, 4-(5-ethoxypyridin-2-yl)-N-(5-(trifluoromethyl)pyridin-2-yl)thiazol-2-amine] | < 200
2 | CC(=O)N(C)c1cc(C(F)(F)F)cnc1Nc1nc(-c2ccc(OC(C)C)cn2)cs1 [Example 93, N-(2-(4-(5-isopropoxypyridin-2-yl)thiazol-2-ylamino)-5-(trifluoromethyl)pyridin-3-yl)-N-methylacetamide] | 500 to 5000
3 | c1ccc(-c2csc(Nc3cc(-c4cnccn4)ccn3)n2)nc1 [Example 173, N-(4-(pyrazin-2-yl)pyridin-2-yl)-4-(pyridin-2-yl)thiazol-2-amine] | 200 to 500
4 | CCOc1cccnc1-c1csc(Nc2ncccc2C)n1 [Example 77, 4-(3-ethoxypyridin-2-yl)-N-(3-methylpyridin-2-yl)thiazol-2-amine] | < 200
5 | CCOc1ccc(-c2csc(Nc3ccc(Cl)cn3)n2)nc1 [Example 85, N-(5-chloropyridin-2-yl)-4-(5-ethoxypyridin-2-yl)thiazol-2-amine] | 500 to 5000
6 | CC(=O)N(C)c1cc(C(F)(F)F)cnc1Nc1nc(-c2ccccn2)cs1 [Example 212, N-methyl-N-(2-(4-(pyridin-2-yl)thiazol-2-ylamino)-5-(trifluoro-methyl)pyridin-3-yl) acetamide] | 500 to 5000
7 | CCOc1cccc(-c2csc(Nc3ncccc3C)n2)n1 [Example 71] | 500 to 5000
8 | Cc1sc(Nc2ccccn2)nc1-c1ccccn1 [Example 227, 5-methyl-N,4-di(pyridin-2-yl)thiazol-2-amine] | < 200
9 | c1ccc(-c2csc(Nc3cc4ccccc4cn3)n2)nc1 [Example 128, N-(isoquinolin-3-yl)-4-(pyridin-2-yl)thiazol-2-amine] | 200 to 500
10 | CCOc1ccc(-c2csc(Nc3nc(C)ccc3C)n2)nc1 [Example 86, N-(3,6-dimethylpyridin-2-yl)-4-(5-ethoxypyridin-2-yl)thiazol-2-amine] | 200 to 500
11 | CCOc1cccc(-c2csc(Nc3cc(C)ccn3)n2)n1 [Example 78, 4-(6-ethoxypyridin-2-yl)-N-(4-methylpyridin-2-yl)thiazol-2-amine] | 500 to 5000
12 | CCOc1cnc(-c2csc(Nc3cc(C)ccn3)n2)c(C)c1 [Example 74, 4-(5-ethoxy-3-methylpyridin-2-yl)-N-(4-methylpyridin-2-yl)thiazol-2-amine] | < 200
13 | Cc1cccnc1-c1csc(Nc2cc(-c3ccccc3)ccn2)n1 [Example 100, 4-(3-methylpyridin-2-yl)-N-(4-phenylpyridin-2-yl)thiazol-2-amine] | 200 to 500
14 | c1ccc(-c2ccc(Nc3nc(-c4ccccn4)cs3)nc2)cc1 [Example 221, N-(5-phenylpyridin-2-yl)-4-(pyridin-2-yl)thiazol-2-amine] | < 200
15 | CCc1sc(Nc2cc(C)ccn2)nc1-c1ccccn1 [Example 184, 5-ethyl-N-(4-methylpyridin-2-yl)-4-(pyridin-2-yl)thiazol-2-amine] | 200 to 500
16 | COc1ccc(Nc2nc(-c3ccccn3)cs2)nc1 [Example 218, N-(5-methoxypyridin-2-yl)-4-(pyridin-2-yl)thiazol-2-amine] | 500 to 5000
17 | c1ccc(-c2csc(Nc3cc(-c4cccc5ccccc45)ccn3)n2)nc1 [Example 175, N-(4-(naphthalen-1-yl)pyridin-2-yl)-4-(pyridin-2-yl)thiazol-2-amine] | < 200
18 | c1ccc(-c2ccnc(Nc3nc(-c4ccccn4)cs3)c2)cc1 [Example 126, N-(4-phenylpyridin-2-yl)-4-(pyridin-2-yl)thiazol-2-amine] | < 200
19 | Cc1ccnc(Nc2nc(-c3ccc(Cl)cn3)cs2)c1 [Example 89, 4-(5-chloropyridin-2-yl)-N-(4-methylpyridin-2-yl)thiazol-2-amine] | 200 to 500
20 | Cc1ccnc(Nc2nc(-c3ccccn3)c(CCOC3CCC3)s2)c1 [Example 180, 5-(2-cyclobutoxy-ethyl)-N-(4-methylpyridin-2-yl)-4-(pyridin-2-yl)thiazol-2-amine] | < 200
21 | c1ccc(-c2csc(Nc3cc(-c4cccnn4)ccn3)n2)nc1 [Example 169, N-(4-(pyridazin-3-yl)pyridin-2-yl)-4-(pyridin-2-yl)thiazol-2-amine] | 500 to 5000
22 | CC(C)c1ccc(Nc2nc(-c3ccccn3)cs2)nc1 [Example 219, N-(5-isopropylpyridin-2-yl)-4-(pyridin-2-yl)thiazol-2-amine] | < 200
23 | COc1ccc(-c2csc(Nc3cc(C)ccn3)n2)nc1 [Example 225, 4-(5-methoxypyridin-2-yl)-N-(4-methylpyridin-2-yl)thiazol-2-amine] | 200 to 500
24 | CSc1ccc(-c2csc(Nc3ncccc3C)n2)nc1 [Example 80, N-(3-methylpyridin-2-yl)-4-(5-(methylthio)pyridin-2-yl)thiazol-2-amine] | < 200

Row | Structure (SMILES) | IC50 [nM]
25 | Cc1cccnc1Nc1nc(-c2ccc(Cl)cn2)cs1 [Example 94, 4-(5-chloropyridin-2-yl)-N-(3-methylpyridin-2-yl)thiazol-2-amine] | 200 to 500
26 | Cc1ccnc(Nc2nc(-c3cc(OC4CN(C)C4)ccn3)cs2)c1 [Example 98, 4-(4-(1-methylazetidin-3-yloxy)pyridin-2-yl)-N-(4-methylpyridin-2-yl)thiazol-2-amine] | 500 to 5000
27 | c1ccc(-c2cccnc2Nc2nc(-c3ccccn3)cs2)cc1 [Example 125, N-(3-phenylpyridin-2-yl)-4-(pyridin-2-yl)thiazol-2-amine] | 500 to 5000
28 | CCOc1ccc(Nc2nc(-c3ccc(OCC)cn3)cs2)nc1 [Example 87, N,4-bis(5-ethoxypyridin-2-yl)thiazol-2-amine] | < 200
29 | COc1ccnc(Nc2nc(-c3ccccn3)cs2)c1 [Example 121, N-(4-methoxypyridin-2-yl)-4-(pyridin-2-yl)thiazol-2-amine] | 200 to 500
30 | Cc1ccnc(Nc2nc(-c3ncccc3-c3ccccc3)cs2)c1 [Example 103, N-(4-methylpyridin-2-yl)-4-(3-phenylpyridin-2-yl)thiazol-2-amine] | < 200
31 | Cc1ccnc(Nc2nc(-c3ccccn3)c(COCC3CCC3)s2)c1 [Example 182, 5-((cyclobutyl-methoxy)methyl)-N-(4-methylpyridin-2-yl)-4-(pyridin-2-yl)thiazol-2-amine] | < 200
32 | Cc1cccnc1Nc1nc(-c2ccc(OC3CC3)cn2)cs1 [Example 48] | 200 to 500
33 | CCOc1ccc(-c2csc(Nc3cccc(C)n3)n2)nc1 [Example 90, 4-(5-ethoxypyridin-2-yl)-N-(6-methylpyridin-2-yl)thiazol-2-amine] | 500 to 5000
34 | CCOc1ccc(-c2csc(Nc3ccc(C)cn3)n2)nc1 [Example 81, 4-(5-ethoxypyridin-2-yl)-N-(5-methylpyridin-2-yl)thiazol-2-amine] | < 200
35 | Cc1cnc(Nc2nc(-c3ccccn3)cs2)c(C)c1 [Example 124, N-(3,5-dimethyl-pyridin-2-yl)-4-(pyridin-2-yl)thiazol-2-amine] | < 200
36 | Cc1ccnc(Nc2nc(-c3ccccn3)c(C)s2)c1 [Example 132, 5-methyl-N-(4-methyl-pyridin-2-yl)-4-(pyridin-2-yl)thiazol-2-amine] | 200 to 500
37 | Cc1ccnc(Nc2nc(-c3cc(-c4ccccc4)ccn3)cs2)c1 [Example 101, N-(4-methylpyridin-2-yl)-4-(4-phenylpyridin-2-yl)thiazol-2-amine] | < 200
38 | CCc1cnc(Nc2nc(-c3ccccn3)cs2)cc1C(F)(F)F [Example 130, N-(5-ethyl-4-(trifluoro-methyl)pyridin-2-yl)-4-(pyridin-2-yl)thiazol-2-amine] | < 200
39 | Cc1ccnc(Nc2nc(-c3cc(C)ccn3)cs2)c1 [Example 220, N,4-bis(4-methylpyridin-2-yl)thiazol-2-amine] | < 200
40 | CCOc1ccc(-c2csc(Nc3ncccc3C3CC3)n2)nc1 [Example 83, N-(3-cyclopropylpyridin-2-yl)-4-(5-ethoxypyridin-2-yl)thiazol-2-amine] | 500 to 5000
41 | FC(F)(F)c1ccc(Nc2nc(-c3ccccn3)cs2)nc1 [Example 217, 4-(pyridin-2-yl)-N-(5-(trifluoromethyl)pyridin-2-yl)thiazol-2-amine] | < 200
42 | CCOc1ccc(-c2csc(Nc3ncc(F)cc3C)n2)nc1 [Example 79, 4-(5-ethoxypyridin-2-yl)-N-(5-fluoro-3-methylpyridin-2-yl)thiazol-2-amine] | 200 to 500
43 | Cc1ccnc(Nc2nc(-c3ccccn3)c(CN3CCC3)s2)c1 [Example 183, 5-(azetidin-1-ylmethyl)-N-(4-methylpyridin-2-yl)-4-(pyridin-2-yl)thiazol-2-amine] | 500 to 5000
44 | CCOc1ccc(-c2csc(Nc3ncc(C(F)(F)F)cc3C)n2)nc1 [Example 84, 4-(5-ethoxypyridin-2-yl)-N-(3-methyl-5-(trifluoromethyl)pyridin-2-yl)thiazol-2-amine] | 200 to 500
45 | CC(=O)N(C)c1cc(C(F)(F)F)cnc1Nc1nc(-c2cc(OC3COC3)ccn2)cs1 [Example 73, N-methyl-N-(2-(4-(4-(oxetan-3-yloxy)pyridin-2-yl)thiazol-2-ylamino)-5-(trifluoromethyl)pyridin-3-yl)acetamide] | 500 to 5000
46 | CCOc1ccc(-c2csc(Nc3cc(C)ccn3)n2)nc1 [Example 91, 4-(5-ethoxypyridin-2-yl)-N-(4-methylpyridin-2-yl)thiazol-2-amine] | < 200
47 | CCOc1ccc(-c2csc(Nc3ncc(C)cc3C)n2)nc1 [Example 88, N-(3,5-dimethylpyridin-2-yl)-4-(5-ethoxypyridin-2-yl)thiazol-2-amine] | < 200
